According to the supplement of paper PMC10307832:

Key:
Assay in all cases: relative viability (nuclei count vs DMSO), 5 days (fraction); higher = more cells survive
Darinaparsin = compound: C[As](C)SC[C@H](NC(=O)CC[C@H](N)C(=O)O)C(=O)NCC(=O)O [Darinaparsin]
Procedure, shortened: (§1)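 In 1536-well plates, lung cancer cell lines rested overnight at 37 °C before five library-drug doses (not always all listed), √10 apart, were pinned onto vehicle-anchored plates. Nuclei were counted with MetaXpress from 4× Hoechst images taken after 5 days without medium change. Viability compares treated-well with vehicle-well nuclei as a median over plates, and plates needed control CV below 25% plus at least one doubling to pass.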

QS11 = compound: C1CC2=C(C1)C=C(C=C2)OC3=NC(=C4C(=N3)N(C=N4)CC5=CC=C(C=C5)C6=CC=CC=C6)N[C@@H](CC7=CC=CC=C7)CO [QS11]
Procedure, shortened: as §1

AZ628 = compound: CC1=C(C=C(C=C1)NC(=O)C2=CC(=CC=C2)C(C)(C)C#N)NC3=CC4=C(C=C3)N=CN(C4=O)C [AZ628]
Procedure, shortened: as §1

Darinaparsin + Foretinib = compound: C[As](C)SC[C@H](NC(=O)CC[C@H](N)C(=O)O)C(=O)NCC(=O)O [Darinaparsin] + COc1cc2c(Oc3ccc(NC(=O)C4(C(=O)Nc5ccc(F)cc5)CC4)cc3F)ccnc2cc1OCCCN1CCOCC1 [Foretinib] (partner 0.25 µM)
Procedure, shortened: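 Lung cancer cell lines in 1536-well plates got either a single drug or a fixed anchor-drug dose together with five library-drug doses (not always all listed) in √10 steps, by pin tool, on the day after seeding. Nuclei were counted after 5 days, and relative viability is the treated-to-vehicle ratio of nuclei counts. Values are medians of duplicate plates.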

Row | Cell Line | relative viability (Darinaparsin; 0.08 µM) | relative viability (Darinaparsin; 0.8 µM) | relative viability (Darinaparsin; 2.53 µM) | relative viability (Darinaparsin; 8 µM) | relative viability (QS11; 0.08 µM) | relative viability (QS11; 0.253 µM) | relative viability (QS11; 0.8 µM) | relative viability (QS11; 2.53 µM) | relative viability (QS11; 8 µM) | relative viability (AZ628; 0.08 µM) | relative viability (AZ628; 0.253 µM) | relative viability (AZ628; 0.8 µM) | relative viability (AZ628; 2.53 µM) | relative viability (AZ628; 8 µM) | relative viability (Darinaparsin + Foretinib; first compound 0.08 µM) | relative viability (Darinaparsin + Foretinib; first compound 0.8 µM) | relative viability (Darinaparsin + Foretinib; first compound 2.53 µM) | relative viability (Darinaparsin + Foretinib; first compound 8 µM)
1 | NCI-H1734 | 1.06 | 0.993 | 0.971 | 1.16 | 0.99 | 1.01 | 0.945 | 0.874 | 0.725 | 1.08 | 0.974 | 0.919 | 0.913 | 0.514 | 1.04 | 0.801 | 0.815 | 0.99
2 | NCI-H1755 | 1.12 | 0.964 | 0.945 | 1.13 | 1.03 | 0.983 | 0.638 | 0.861 | 0.783 | 0.992 | 1.02 | 0.97 | 0.989 | 0.948 | 0.994 | 0.931 | 0.868 | 1.08
3 | NCI-H1793 | 0.981 | 0.934 | 0.707 | 1.02 | 0.866 | 0.807 | 1.05 | 1.07 | 1.09 | 1.1 | 0.829 | 0.957 | 0.783 | 0.61 | 0.766 | 0.77 | 0.524 | 0.829
4 | NCI-H1915 | 1.04 | 0.964 | 0.965 | 1.1 | 0.993 | 1.04 |  | 0.872 | 0.871 | 0.994 | 0.939 | 0.796 | 0.731 | 0.464 | 1.2 | 1.08 | 0.958 | 1.25
5 | NCI-H1944 | 1 | 0.997 | 0.959 | 1.14 | 0.999 | 0.947 |  | 0.958 | 0.884 | 1.06 | 0.917 | 0.792 | 0.729 | 0.727 | 0.917 | 0.898 | 0.731 | 0.995
6 | NCI-H1975 | 0.992 | 1.01 | 0.906 | 1.05 | 0.954 | 0.881 | 1.04 | 1.23 | 1.34 | 0.927 | 0.85 | 0.889 | 0.94 | 0.768 | 1.13 | 0.994 | 0.975 | 1.12
7 | NCI-H1993 | 1.02 | 0.885 | 1.03 | 0.922 | 1.02 | 0.884 | 0.918 | 0.992 | 0.824 | 0.995 | 0.848 | 0.835 | 0.735 | 0.515 | 0.738 | 0.761 | 0.788 | 0.921
8 | NCI-H2009 | 1.12 | 1.03 | 0.949 | 1.03 | 1.03 | 1.01 | 0.756 | 0.902 | 0.894 | 0.948 | 0.933 | 0.598 | 0.711 | 0.379 | 0.435 | 1.18 | 1.15 | 1.33
9 | NCI-H2023 | 1.08 | 0.952 | 0.992 | 1.23 | 1.04 | 0.987 | 0.895 | 1.09 | 0.805 | 1.11 | 1.03 | 0.974 | 0.915 | 0.674 | 0.847 | 0.78 | 0.821 | 0.904
10 | NCI-H2085 | 0.998 | 0.985 | 0.958 | 0.999 | 0.946 | 0.953 | 0.968 | 1 | 1.09 | 1.08 | 0.98 | 1 | 1.03 | 0.882 | 1.12 | 0.975 | 0.863 | 0.902
11 | NCI-H2087 | 1.14 | 1.14 | 1.01 | 1.13 | 1.02 | 0.937 | 0.854 | 0.874 | 0.898 | 0.92 | 0.671 | 0.729 | 0.814 | 0.336 | 1.44 | 1.09 | 1.03 | 1.37
12 | NCI-H2126 | 1.1 | 1.03 | 0.956 | 1.12 | 0.994 | 0.944 | 0.905 | 0.965 | 0.799 | 1.04 | 1 | 0.888 | 1.02 | 0.985 | 1.17 | 1.1 | 1.05 | 1.13
13 | NCI-H2170 | 1.11 | 0.978 | 0.845 | 1.18 | 1.04 | 1 | 0.728 | 1.05 | 1.2 | 1.01 | 0.964 | 0.936 | 1.02 | 0.983 | 1.01 | 0.965 | 0.992 | 1.19
14 | NCI-H2228 | 1.39 | 1.18 | 0.915 | 1.35 | 0.902 | 1.01 | 0.97 | 1.09 | 1.32 | 0.994 | 1.16 | 0.968 | 1.02 | 0.84 | 1.42 | 0.935 | 0.949 | 0.891
15 | NCI-H2342 | 0.953 | 0.888 | 0.939 | 1.08 | 0.888 | 1.02 | 1.07 | 0.998 | 0.998 | 1.1 | 0.898 | 1.02 | 0.935 | 0.995 | 0.959 | 1.04 | 1.03 | 1.17
16 | NCI-H2347 | 1.05 | 0.961 | 0.994 | 1.19 | 0.938 | 1.05 | 0.873 | 0.906 | 0.906 | 0.775 | 0.895 | 0.854 | 0.76 | 0.485 | 0.859 | 1.01 | 0.994 | 1.05
17 | NCI-H2405 | 1.09 | 0.926 | 0.975 | 1.04 | 0.976 | 0.992 | 0.875 | 1.09 | 1.07 | 0.724 | 0.476 | 0.612 | 0.67 | 0.558 | 0.994 | 1.05 | 0.929 | 1.07
18 | NCI-H3122 | 1.06 | 1.01 | 1.01 | 1.16 | 1.03 | 1.07 |  | 1.11 | 0.972 | 0.956 | 0.736 | 0.648 | 0.598 | 0.403 | 1.03 | 0.964 | 0.94 | 0.789
